The record followed here is EP1763509B1, “ALPHA-HELICAL MIMETICS” (THE WALTER AND ELIZA HALL INSTITUTE OF MEDICAL RESEARCH, priority 2004, dated 2006).

Molecules are shown by their SMILES.

One assay deals with T1, Bcl-wΔ29 (Homo sapiens, UniProt Q92843).
T1 construct: GST tagged Bclw ΔC29 protein
T1 sequence (Q92843 1-164 limits assumed): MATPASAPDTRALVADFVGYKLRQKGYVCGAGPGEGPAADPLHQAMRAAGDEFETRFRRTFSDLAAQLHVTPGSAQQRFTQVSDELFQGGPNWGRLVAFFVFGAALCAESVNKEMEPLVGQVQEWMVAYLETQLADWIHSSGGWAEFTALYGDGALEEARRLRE
Put plainly: Alphascreen GST competition binding assay, benzoylurea compounds vs Biotinylated Bim BH3-26 peptide on GST tagged Bclw ΔC29 protein. To be noted: GST tagged Bclw ΔC29 protein 0.05 nM, Biotinylated Bim BH3-26 peptide 3.0 nM, 4 hours at room temperature; values marked a tested in a separate experiment; n.b. = not binding in the assay conditions.
As usually defined, the IC50 is the midpoint of a concentration-inhibition curve. A higher IC50 goes with a need for much substance. The compound `CCCN(C(=O)N[C@@H](CSCc1ccccc1)C(=O)O)C(=O)c1ccc(-c2ccc(F)cc2)cc1` [(11)] returned an IC50 of 104 µM.
On the same count and under the same terms, for `O=C(O)[C@H](CSCc1ccccc1)NC(=O)N(Cc1cccnc1)C(=O)c1cccc(-c2ccccc2)c1` [(12)] the value was 46 µM; for `CCCN(C(=O)N[C@@H](CSCc1ccccc1)C(=O)O)C(=O)c1cccc(-c2cccc3ccccc23)c1` [(13)], 31 µM.
Same read-out and setting: for `CCCN(C(=O)N[C@@H](CSCc1ccccc1)C(=O)O)C(=O)c1cccc(-c2ccc3ccccc3c2)c1` [(14)] the value was 36 µM; for `CCCN(C(=O)N[C@@H](Cc1ccc(-c2ccccc2)cc1)C(=O)O)C(=O)c1cccc(-c2ccccc2)c1` [(15)], 41 µM; for `CCCN(C(=O)N[C@@H](CCc1ccccc1)C(=O)O)C(=O)c1cccc(-c2ccccc2)c1` [(16)], 130 µM.
Still for that read-out and setting: in the case of `CCCN(C(=O)N[C@@H](Cc1ccc2ccccc2c1)C(=O)O)C(=O)c1cccc(-c2ccccc2)c1` [(17)] it was 55 µM; in that of `CCCN(C(=O)N[C@@H](Cc1cccc2ccccc12)C(=O)O)C(=O)c1cccc(-c2ccccc2)c1` [(18)], 60 µM; in that of `CCCN(C(=O)N[C@@H](CCCc1ccccc1)C(=O)O)C(=O)c1cccc(-c2ccccc2)c1` [(19)], 132 µM.
`CCCN(C(=O)N[C@H](CSCc1ccccc1)C(=O)O)C(=O)c1cccc(-c2ccccc2)c1` [(21)] showed an IC50 of 84 µM.
Still for that read-out and setting: in the case of `CCCN(C(=O)N[C@@H](CSc1ccccc1)C(=O)O)C(=O)c1cccc(-c2ccccc2)c1` [(22)] it was 80 µM.
For `CCCN(C(=O)N[C@@H](CSCc1ccccc1)C(=O)O)C(=O)c1ccc(-c2ccccc2)cc1` [(23)], the IC50 was 76 µM.
As to `O=C(O)[C@H](CSCc1ccccc1)NC(=O)N(Cc1cccc2ccccc12)C(=O)c1cccc(-c2ccccc2)c1` [(24)], the IC50 is 31.2 µM.
On the same count and under the same terms, for `CCCN(C(=O)N[C@@H](CSCCc1ccncc1)C(=O)O)C(=O)c1cccc(-c2ccccc2)c1` [(25)] the value was 261 µM.
As for `CCCN(C(=O)N[C@@H](Cc1ccccc1)C(=O)O)C(=O)c1cccc(-c2ccccc2)c1` [(27)], the IC50 is 194 µM.
`CCCN(C(=O)N[C@@H](Cc1ccc(O)cc1)C(=O)O)C(=O)c1cccc(-c2ccccc2)c1` [(28)]: the IC50 is 300 µM.
Compound `CCCN(C(=O)N[C@@H](Cc1c[nH]c2ccccc12)C(=O)O)C(=O)c1cccc(-c2ccccc2)c1` [(29)] returned an IC50 of 88 µM.
The compound `CCCN(C(=O)N[C@@H](COCc1ccccc1)C(=O)O)C(=O)c1cccc(-c2ccccc2)c1` [(30)] came in with an IC50 of 147 µM.
In turn, `CCCN(C(=O)N[C@@H](C[S+]([O-])Cc1ccccc1)C(=O)O)C(=O)c1cccc(-c2ccccc2)c1` (stereo partly drawn) [(31)] yielded an IC50 of 165 µM.
In turn, `CCCN(C(=O)N[C@@H](CSCc1ccccc1)C(=O)O)C(=O)c1cccc(Cc2ccccc2)c1` [(33)] came in with an IC50 of 72 µM.
Same read-out and setting: for `CCCN(C(=O)N[C@@H](CSCc1ccccc1)C(=O)O)C(=O)c1ccc(Cc2ccccc2)cc1` [(34)] the value was 72 µM; for `CCCN(C(=O)N[C@@H](CSCc1ccccc1)C(=O)O)C(=O)c1cccc(-c2ccc(F)cc2)c1` [(35)], 66 µM; for `O=C(O)[C@H](CSCc1ccccc1)NC(=O)N(Cc1cccc2ccccc12)C(=O)c1cccc(-c2ccc(F)cc2)c1` [(36)], 47 µM.
The same measure, in the same setting: for `O=C(O)[C@H](CSCc1ccccc1)NC(=O)N(CCC1CC1)C(=O)c1cccc(-c2ccccc2)c1` [(37)] the value was 60 µM; for `Cc1cccc(C)c1C(=O)N(C(=O)N[C@@H](CSCc1ccccc1)C(=O)O)C(C)C` [(38)], 297 µM; for `CC(C)CCN(C(=O)N[C@@H](CSCc1ccccc1)C(=O)O)C(=O)c1cccc(-c2ccccc2)c1` [(39)], 50 µM.
On the same count and under the same terms, for `CSCCN(C(=O)N[C@@H](CSCc1ccccc1)C(=O)O)C(=O)c1cccc(-c2ccccc2)c1` [(40)] the value was 63 µM.
Regarding `O=C(O)[C@H](CSCc1ccccc1)NC(=O)N(CCC1CC1)C(=O)c1ccc(-c2ccccc2)cc1` [(43)], the IC50 is 57 µM.
The same measure, in the same setting: for `CSCCN(C(=O)N[C@@H](CSCc1ccccc1)C(=O)O)C(=O)c1ccc(-c2ccccc2)cc1` [(45)] the value was 69 µM; for `CCCN(C(=O)N[C@@H](CSCc1ccccc1)C(=O)O)C(=O)c1cccc(-c2ccccc2Cl)c1` [(46)], 38 µM.
Same read-out and setting: in the case of `CCCN(C(=O)N[C@@H](CSCc1ccccc1)C(=O)O)C(=O)c1cccc(-c2ccc(C)cc2)c1` [(47)] it was 62 µM; in that of `CCCN(C(=O)N[C@@H](CSCc1ccccc1)C(=O)O)C(=O)c1ccc(-c2ccccc2Cl)cc1` [(48)], 68 µM.
Same read-out and setting: in the case of `CCCN(C(=O)N[C@@H](CSCc1ccccc1)C(=O)O)C(=O)c1cccc(-c2ccc(OC)cc2)c1` [(52)] it was 96 µM; in that of `CCCN(C(=O)N[C@@H](CSCc1ccccc1)C(=O)O)C(=O)c1cccc(-c2ccc(Cl)c(Cl)c2)c1` [(58)], 48 µM; in that of `CCCN(C(=O)N[C@@H](CSCc1ccccc1)C(=O)O)C(=O)c1cccc(-c2ccc(Cl)cc2)c1` [(59)], 68 µM.
As to `CCCN(C(=O)N[C@@H](CSCc1ccccc1)C(=O)O)C(=O)c1ccc(-c2ccc(C)cc2)cc1` [(62)], the IC50 was 48 µM.
In turn, `CCCN(C(=O)N[C@@H](CSCc1ccccc1)C(=O)O)C(=O)c1ccc(-c2ccc(OC)cc2)cc1` [(63)] showed an IC50 of 136 µM.
For the compound `CCCN(C(=O)N[C@@H](CSCc1ccccc1)C(=O)O)C(=O)c1ccc(-c2ccc(Cl)cc2)cc1` [(64)], the IC50 was 74 µM.
Still for that read-out and setting: in the case of `CCCN(C(=O)N[C@@H](CSCc1ccccc1)C(=O)O)C(=O)c1ccc(-c2ccc(Cl)c(Cl)c2)cc1` [(65)] it was 60 µM.
Same read-out and setting: for `CCCN(C(=O)N[C@@H](CSCc1ccccc1)C(=O)O)C(=O)c1cccc(C#Cc2ccccc2)c1` [(66)] the value was 58 µM.
`CCCN(C(=O)N[C@@H](CSCc1ccccc1)C(=O)O)C(=O)c1ccc(C#Cc2ccccc2)cc1` [(67)] came in with an IC50 of 92 µM.
In turn, `CCN(C(=O)N[C@@H](CSCc1ccccc1)C(=O)O)C(=O)c1cccc(-c2ccccc2)c1` [(70)] came in with an IC50 of 153 µM.
As to `CCCN(C(=O)NCC(=O)O)C(=O)c1cccc(-c2ccccc2)c1` [(71)], the “Bcl-wΔ29 IC50 (µM)” value is on record as “n.b.^b”.
Regarding `O=C([C@H](CSCc1ccccc1)NC(=O)N(Cc1cccc2ccccc12)C(=O)c1cccc(-c2ccc(F)cc2)c1)N1CCOCC1` [(72)], the “Bcl-wΔ29 IC50 (µM)” value is “n.b.^b”.
The compound `CCCN(C(=O)N[C@@H](CSCc1ccccc1)C(=O)O)C(=O)c1cc(CC(=O)O)cc(-c2ccccc2)c1` [(81)] displayed an IC50 of 144 µM.

The target in the next assay is T2, Bcl-xLΔ25 (Homo sapiens, UniProt Q07817).
T2 construct: GST tagged Bcl-xL ΔC25 protein
T2 sequence (Q07817 1-208 limits assumed, stated change not applied): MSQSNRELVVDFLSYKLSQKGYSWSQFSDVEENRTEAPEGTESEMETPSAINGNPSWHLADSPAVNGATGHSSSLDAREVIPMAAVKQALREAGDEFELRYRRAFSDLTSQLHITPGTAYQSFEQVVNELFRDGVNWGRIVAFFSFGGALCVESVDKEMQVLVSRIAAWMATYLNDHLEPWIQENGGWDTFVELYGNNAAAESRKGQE
Put plainly: Alphascreen GST competition binding assay, benzoylurea compounds vs Biotinylated Bim BH3-26 peptide on GST tagged Bcl-xL ΔC25 protein. To be noted: GST tagged Bcl-xL ΔC25 protein 0.6 nM, Biotinylated Bim BH3-26 peptide 5.0 nM, 4 hours at room temperature; n.b. = not binding in the assay conditions. (In general: In Alpha technology, singlet oxygen from a donor bead excites a nearby acceptor bead.)
`CCCN(C(=O)N[C@H](CC(=O)O)Cc1c[nH]c2ccccc12)C(=O)c1cccc(C#Cc2ccccc2)c1` [(116)] returned an IC50 of 19 µM.
Still for that read-out and setting: for `CCCN(C(=O)N[C@@H](Cc1csc2ccccc12)C(=O)O)C(=O)c1cccc(C#Cc2ccccc2)c1` [(117)] the value was 35 µM; for `CCCN(C(=O)N[C@H](CC(=O)O)Cc1ccc2ccccc2c1)C(=O)c1cccc(C#Cc2ccccc2)c1` [(118)], 34 µM; for `CCCN(C(=O)N[C@H](CC(=O)O)Cc1cccc2ccccc12)C(=O)c1cccc(C#Cc2ccccc2)c1` [(119)], 67 µM.
As to `CCCN(C(=O)N[C@@H](CCc1ccccc1)CC(=O)O)C(=O)c1cccc(C#Cc2ccccc2)c1` [(120)], the IC50 was 44 µM.
As to `CCCN(C(=O)N[C@@H](CCSC)CC(=O)O)C(=O)c1cccc(C#Cc2ccccc2)c1` [(121)], the IC50 was found to be 141 µM.
